According to ChEMBL document CHEMBL5465560, “Selectivity Literature for EUbOPEN Chemogenomic Library” (2024):

Columns and labels:
[1] = molecular target: Calcium/calmodulin-dependent protein kinase type II subunit gamma (Homo sapiens) (UniProt Q13555); test: Selectivity interaction (Kinase panel (KiNativ target engagement assay in Jurkat cells)) EUB0001635a CAMK2G; assay type: cell-based; conditions: Selectivity number of off-targets 0.0, Selectivity number of targets 233.0, Source Knowledge https://www.sciencedirect.com/science/article/pii/S2451945619300674?via%3Dihub, at 1 µM
Sequence of Calcium/calmodulin-dependent protein kinase type II subunit gamma (Homo sapiens) (Q13555 whole entry): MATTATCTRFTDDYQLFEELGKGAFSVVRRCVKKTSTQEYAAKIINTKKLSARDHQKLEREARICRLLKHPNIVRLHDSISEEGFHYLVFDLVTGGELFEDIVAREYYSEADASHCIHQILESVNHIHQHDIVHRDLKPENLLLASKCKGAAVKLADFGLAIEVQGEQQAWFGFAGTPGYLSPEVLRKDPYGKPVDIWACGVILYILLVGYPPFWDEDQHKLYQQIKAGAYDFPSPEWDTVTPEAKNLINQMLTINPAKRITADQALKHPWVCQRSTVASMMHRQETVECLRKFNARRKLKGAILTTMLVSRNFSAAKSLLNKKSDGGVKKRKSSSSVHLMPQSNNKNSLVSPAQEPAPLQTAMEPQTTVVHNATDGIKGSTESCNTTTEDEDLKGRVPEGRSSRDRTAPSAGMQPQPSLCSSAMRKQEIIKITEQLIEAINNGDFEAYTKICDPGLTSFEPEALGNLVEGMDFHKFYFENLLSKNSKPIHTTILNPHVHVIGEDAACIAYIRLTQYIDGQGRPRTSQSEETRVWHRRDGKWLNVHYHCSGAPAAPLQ

[2] = molecular target: T1, Serine/threonine-protein kinase STK11 (Homo sapiens) (UniProt Q15831); test: Selectivity interaction (KinomeScan (DiscoverX)) EUB0000666a STK11; conditions: at 10 µM
T1 sequence (whole entry): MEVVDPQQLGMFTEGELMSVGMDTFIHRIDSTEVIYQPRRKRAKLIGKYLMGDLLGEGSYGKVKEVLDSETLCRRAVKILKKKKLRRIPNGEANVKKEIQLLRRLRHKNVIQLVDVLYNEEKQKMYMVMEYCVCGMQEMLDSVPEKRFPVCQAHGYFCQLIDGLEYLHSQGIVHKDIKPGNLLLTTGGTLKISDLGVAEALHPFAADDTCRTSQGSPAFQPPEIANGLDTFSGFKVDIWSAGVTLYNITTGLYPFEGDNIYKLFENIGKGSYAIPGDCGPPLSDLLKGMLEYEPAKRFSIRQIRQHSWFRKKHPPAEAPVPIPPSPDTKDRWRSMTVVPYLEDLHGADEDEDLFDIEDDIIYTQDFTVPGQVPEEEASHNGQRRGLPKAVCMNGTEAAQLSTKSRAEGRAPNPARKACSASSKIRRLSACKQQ

[3] = molecular target: Casein kinase I isoform gamma-1 (Homo sapiens) (UniProt Q9HCP0); conditions: at 10 µM
Sequence of Casein kinase I isoform gamma-1 (Homo sapiens) (Q9HCP0 whole entry, looked up, canonical isoform): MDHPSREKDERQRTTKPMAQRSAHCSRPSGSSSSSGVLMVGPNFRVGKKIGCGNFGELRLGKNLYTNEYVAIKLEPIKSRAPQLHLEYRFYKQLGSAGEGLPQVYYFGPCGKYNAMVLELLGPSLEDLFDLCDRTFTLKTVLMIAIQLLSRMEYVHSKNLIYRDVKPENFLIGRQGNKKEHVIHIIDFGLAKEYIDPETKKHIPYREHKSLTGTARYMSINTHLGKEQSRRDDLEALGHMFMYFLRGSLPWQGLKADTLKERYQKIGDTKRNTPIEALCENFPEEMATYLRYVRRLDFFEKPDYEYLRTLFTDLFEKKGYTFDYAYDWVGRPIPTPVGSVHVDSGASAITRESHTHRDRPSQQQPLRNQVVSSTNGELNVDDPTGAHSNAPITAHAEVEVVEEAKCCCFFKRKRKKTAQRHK

[4] = molecular target: Tyrosine-protein kinase ABL2 (Homo sapiens, UniProt P42684); test: Selectivity interaction (ActivX KiNativ screen (kinase selectivity in THP-1 cell lysates)) EUB0000639a ABL2; assay type: subcellular; conditions: lysate
Sequence of Tyrosine-protein kinase ABL2 (P42684 whole entry, the tested form may be a part): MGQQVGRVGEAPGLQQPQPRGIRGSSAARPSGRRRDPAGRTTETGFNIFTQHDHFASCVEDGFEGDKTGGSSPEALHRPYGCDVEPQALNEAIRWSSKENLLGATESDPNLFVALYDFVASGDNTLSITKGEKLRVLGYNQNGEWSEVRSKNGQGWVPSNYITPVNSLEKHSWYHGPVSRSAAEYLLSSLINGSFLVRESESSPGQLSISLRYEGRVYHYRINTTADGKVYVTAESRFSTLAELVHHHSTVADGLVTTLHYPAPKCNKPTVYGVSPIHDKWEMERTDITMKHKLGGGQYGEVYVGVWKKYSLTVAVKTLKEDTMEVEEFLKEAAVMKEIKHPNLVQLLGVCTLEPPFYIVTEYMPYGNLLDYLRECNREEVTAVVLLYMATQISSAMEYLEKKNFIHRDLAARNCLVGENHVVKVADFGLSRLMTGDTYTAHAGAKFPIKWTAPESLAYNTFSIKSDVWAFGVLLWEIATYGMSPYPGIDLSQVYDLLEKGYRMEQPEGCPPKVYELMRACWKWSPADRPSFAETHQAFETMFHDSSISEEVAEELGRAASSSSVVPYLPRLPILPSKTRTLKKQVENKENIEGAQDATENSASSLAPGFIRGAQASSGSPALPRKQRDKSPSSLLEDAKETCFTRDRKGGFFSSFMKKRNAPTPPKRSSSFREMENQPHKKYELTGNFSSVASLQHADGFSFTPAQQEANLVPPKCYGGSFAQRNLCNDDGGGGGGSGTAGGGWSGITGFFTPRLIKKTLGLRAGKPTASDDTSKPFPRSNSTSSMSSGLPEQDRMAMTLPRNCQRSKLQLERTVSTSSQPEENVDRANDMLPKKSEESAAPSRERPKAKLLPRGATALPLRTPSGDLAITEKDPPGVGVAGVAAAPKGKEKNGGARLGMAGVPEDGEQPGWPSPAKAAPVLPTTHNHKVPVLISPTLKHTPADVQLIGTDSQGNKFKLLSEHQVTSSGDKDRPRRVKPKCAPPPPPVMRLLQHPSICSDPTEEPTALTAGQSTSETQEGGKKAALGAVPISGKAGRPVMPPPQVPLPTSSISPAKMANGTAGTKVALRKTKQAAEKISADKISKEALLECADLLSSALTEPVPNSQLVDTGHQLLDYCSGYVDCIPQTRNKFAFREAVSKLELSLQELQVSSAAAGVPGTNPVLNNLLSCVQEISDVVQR

[5] = molecular target: T2, Discoidin domain-containing receptor 2 (Homo sapiens) (UniProt Q16832); test: Selectivity interaction (Kinase panel (Invitrogen)) EUB0000639a DDR2; conditions: at 200 nM
T2 sequence (whole entry): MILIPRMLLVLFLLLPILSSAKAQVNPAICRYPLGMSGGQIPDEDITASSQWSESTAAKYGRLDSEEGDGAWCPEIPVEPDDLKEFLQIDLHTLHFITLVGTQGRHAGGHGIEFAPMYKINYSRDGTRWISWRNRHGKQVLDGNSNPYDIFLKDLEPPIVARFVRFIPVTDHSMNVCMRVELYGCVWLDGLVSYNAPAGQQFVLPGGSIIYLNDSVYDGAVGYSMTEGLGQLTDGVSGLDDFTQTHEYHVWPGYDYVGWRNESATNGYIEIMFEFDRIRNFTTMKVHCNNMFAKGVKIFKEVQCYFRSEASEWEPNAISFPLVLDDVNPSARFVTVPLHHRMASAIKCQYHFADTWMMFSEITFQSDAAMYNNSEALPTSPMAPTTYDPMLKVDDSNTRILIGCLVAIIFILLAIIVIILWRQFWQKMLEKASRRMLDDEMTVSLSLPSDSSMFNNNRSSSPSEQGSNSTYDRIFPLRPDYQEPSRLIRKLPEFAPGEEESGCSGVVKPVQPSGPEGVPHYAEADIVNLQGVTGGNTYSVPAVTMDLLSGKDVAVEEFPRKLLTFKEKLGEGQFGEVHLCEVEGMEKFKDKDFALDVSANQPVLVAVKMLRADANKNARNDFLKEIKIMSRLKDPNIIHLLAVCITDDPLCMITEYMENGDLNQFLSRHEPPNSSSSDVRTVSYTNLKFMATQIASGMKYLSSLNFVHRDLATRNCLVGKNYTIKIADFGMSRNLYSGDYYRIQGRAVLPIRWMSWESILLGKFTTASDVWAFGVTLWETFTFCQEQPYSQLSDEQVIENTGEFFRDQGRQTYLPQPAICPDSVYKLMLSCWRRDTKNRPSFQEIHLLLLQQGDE

[6] = molecular target: Atypical kinase COQ8A, mitochondrial (Homo sapiens, UniProt Q8NI60); test: Selectivity interaction (KinomeScan (DiscoverX)) EUB0001049a ADCK3; conditions: at 1 µM
Sequence of Atypical kinase COQ8A, mitochondrial (Q8NI60 163-647 limits assumed): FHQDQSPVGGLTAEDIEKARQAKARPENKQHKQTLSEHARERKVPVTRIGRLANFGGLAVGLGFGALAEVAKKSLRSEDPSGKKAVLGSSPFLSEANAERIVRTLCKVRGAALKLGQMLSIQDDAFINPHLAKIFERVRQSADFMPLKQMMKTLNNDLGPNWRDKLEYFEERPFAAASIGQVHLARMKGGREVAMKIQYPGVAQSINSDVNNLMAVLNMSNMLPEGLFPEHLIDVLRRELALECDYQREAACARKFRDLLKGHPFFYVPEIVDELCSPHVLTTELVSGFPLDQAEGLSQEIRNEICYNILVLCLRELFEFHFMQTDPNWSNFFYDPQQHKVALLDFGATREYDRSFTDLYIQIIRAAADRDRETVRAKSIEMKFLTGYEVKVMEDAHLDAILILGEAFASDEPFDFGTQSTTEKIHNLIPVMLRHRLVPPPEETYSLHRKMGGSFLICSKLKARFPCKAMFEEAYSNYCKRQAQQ

[7] = molecular target: Serine/threonine-protein kinase 38 (Homo sapiens) (UniProt Q15208); test: Selectivity interaction (KinomeScan (DiscoverX)) EUB0000695a STK38; conditions: at 100 nM
Sequence of Serine/threonine-protein kinase 38 (Homo sapiens) (Q15208 2-465 limits assumed): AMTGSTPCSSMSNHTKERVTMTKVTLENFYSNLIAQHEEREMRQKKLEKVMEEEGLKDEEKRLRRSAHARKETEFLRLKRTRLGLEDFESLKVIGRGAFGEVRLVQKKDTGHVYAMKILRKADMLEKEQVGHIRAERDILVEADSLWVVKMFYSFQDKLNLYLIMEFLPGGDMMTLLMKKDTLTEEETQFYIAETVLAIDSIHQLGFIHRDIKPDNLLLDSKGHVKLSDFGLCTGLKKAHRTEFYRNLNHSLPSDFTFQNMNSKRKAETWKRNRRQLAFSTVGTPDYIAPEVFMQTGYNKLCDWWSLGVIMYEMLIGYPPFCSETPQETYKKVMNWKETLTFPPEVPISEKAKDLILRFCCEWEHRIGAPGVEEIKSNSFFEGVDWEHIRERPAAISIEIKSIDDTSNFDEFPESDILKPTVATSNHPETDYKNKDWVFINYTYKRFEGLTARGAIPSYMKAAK

[8] = molecular target: Homeodomain-interacting protein kinase 3 (Homo sapiens, UniProt Q9H422); test: Selectivity interaction (KinomeScan (DiscoverX)) EUB0000595a HIPK3; conditions: at 10 µM
[9] = molecular target: Interleukin-1 receptor-associated kinase 1 (Homo sapiens) (UniProt P51617); test: Selectivity interaction (KinomeScan (DiscoverX)) EUB0000595a IRAK1; conditions: at 10 µM
Sequence of Interleukin-1 receptor-associated kinase 1 (Homo sapiens) (P51617 whole entry, looked up): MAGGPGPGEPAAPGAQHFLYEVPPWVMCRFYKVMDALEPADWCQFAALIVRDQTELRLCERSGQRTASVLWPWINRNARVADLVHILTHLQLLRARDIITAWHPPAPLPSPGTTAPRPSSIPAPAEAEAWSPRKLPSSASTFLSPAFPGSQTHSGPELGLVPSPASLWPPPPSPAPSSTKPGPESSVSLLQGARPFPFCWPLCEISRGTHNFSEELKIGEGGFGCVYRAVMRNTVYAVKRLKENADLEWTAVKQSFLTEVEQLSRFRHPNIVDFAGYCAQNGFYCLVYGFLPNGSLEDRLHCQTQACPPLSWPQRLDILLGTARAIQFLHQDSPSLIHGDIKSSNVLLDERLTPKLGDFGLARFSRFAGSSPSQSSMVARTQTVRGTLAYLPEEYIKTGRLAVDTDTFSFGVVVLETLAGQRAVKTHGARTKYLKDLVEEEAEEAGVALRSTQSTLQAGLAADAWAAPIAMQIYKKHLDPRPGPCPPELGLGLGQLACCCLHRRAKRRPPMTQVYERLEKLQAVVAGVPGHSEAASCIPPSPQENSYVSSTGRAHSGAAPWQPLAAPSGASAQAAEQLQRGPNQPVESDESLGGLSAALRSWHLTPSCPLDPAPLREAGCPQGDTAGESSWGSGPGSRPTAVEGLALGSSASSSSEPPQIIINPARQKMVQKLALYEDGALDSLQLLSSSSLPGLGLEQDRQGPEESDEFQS

[10] = molecular target: T3, Activin receptor type-1 (Homo sapiens) (UniProt Q04771); test: Selectivity interaction (KinomeScan (DiscoverX)) EUB0000045b ACVR1
T3 sequence (whole entry): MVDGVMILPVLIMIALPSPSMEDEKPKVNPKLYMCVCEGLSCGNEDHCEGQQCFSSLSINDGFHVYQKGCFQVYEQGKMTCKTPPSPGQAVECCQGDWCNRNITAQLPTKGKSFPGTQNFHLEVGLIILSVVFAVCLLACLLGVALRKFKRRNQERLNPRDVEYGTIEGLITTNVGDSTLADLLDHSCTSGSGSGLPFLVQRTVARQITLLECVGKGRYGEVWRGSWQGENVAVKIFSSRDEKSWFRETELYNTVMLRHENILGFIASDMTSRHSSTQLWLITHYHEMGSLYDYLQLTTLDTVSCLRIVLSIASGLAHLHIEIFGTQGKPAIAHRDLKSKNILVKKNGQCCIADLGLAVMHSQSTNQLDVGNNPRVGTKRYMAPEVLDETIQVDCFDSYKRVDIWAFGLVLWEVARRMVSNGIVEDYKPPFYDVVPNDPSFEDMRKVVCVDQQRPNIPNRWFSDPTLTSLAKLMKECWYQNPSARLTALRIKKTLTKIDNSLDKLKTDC

[11] = molecular target: Mitogen-activated protein kinase kinase kinase 9 (Homo sapiens) (UniProt P80192); test: Selectivity interaction (KinomeScan (DiscoverX)) EUB0001619a MAP3K9; conditions: at 1 µM
Sequence of Mitogen-activated protein kinase kinase kinase 9 (Homo sapiens) (P80192 whole entry, looked up): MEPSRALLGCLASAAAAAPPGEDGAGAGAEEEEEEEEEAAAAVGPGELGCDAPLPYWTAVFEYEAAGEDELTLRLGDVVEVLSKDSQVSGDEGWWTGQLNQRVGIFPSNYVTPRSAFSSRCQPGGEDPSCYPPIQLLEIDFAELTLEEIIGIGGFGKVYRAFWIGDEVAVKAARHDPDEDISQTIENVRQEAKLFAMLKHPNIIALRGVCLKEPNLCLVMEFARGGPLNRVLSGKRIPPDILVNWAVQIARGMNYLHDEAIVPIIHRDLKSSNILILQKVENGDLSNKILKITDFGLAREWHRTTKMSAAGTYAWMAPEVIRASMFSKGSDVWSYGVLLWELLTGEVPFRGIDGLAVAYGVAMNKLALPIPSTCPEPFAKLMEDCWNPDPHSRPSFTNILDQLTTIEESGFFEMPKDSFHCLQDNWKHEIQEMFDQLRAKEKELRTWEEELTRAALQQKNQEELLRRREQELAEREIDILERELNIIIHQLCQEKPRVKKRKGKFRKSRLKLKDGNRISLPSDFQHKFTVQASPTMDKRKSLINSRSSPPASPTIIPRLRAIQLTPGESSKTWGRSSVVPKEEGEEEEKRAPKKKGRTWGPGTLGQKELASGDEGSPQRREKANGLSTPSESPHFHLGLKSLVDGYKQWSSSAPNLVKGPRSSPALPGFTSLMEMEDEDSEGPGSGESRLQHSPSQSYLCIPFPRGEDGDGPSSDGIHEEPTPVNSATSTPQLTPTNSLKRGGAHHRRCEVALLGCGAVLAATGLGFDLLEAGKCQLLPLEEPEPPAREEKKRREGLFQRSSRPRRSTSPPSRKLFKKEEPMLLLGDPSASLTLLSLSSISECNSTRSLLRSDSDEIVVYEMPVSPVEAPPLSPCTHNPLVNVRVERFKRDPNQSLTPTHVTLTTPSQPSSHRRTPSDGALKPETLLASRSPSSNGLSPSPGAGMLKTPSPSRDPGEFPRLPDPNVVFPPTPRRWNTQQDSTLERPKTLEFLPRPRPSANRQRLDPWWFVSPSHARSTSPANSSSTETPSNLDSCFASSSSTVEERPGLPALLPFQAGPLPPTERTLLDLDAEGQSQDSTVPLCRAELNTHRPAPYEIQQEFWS

`C=CC(=O)Nc1ccc(C(=O)Nc2[nH]nc3c2CN(C(=O)N[C@H](CN(C)C)c2ccccc2)C3(C)C)cc1` was tested, and the % of engagement [1] was 35.8%.

In the case of `O=C(NOC[C@H](O)CO)c1ccc(F)c(F)c1Nc1ccc(I)cc1F`, the % of control [2] is reported as 83%.

Work on `Cc1cc([C@@H](C)Nc2ccccc2C(=O)O)c2nc(N3CCOCC3)cc(=O)n2c1` [AZD-6482] yielded a % of control [3] of 68%.

Molecule `CC[C@@H]1[C@H](F)C(=O)N[C@@H]1COc1nccc2cc(C(N)=O)c(OC)cc12` [ZIMLOVISERTIB] has a % of inhibition ([4]; at 0.01 µM) of 52%, a % of inhibition ([4]; at 0.04 µM) of -16% and a % of inhibition ([4]; at 0.2 µM) of -25.4%. It also gave a % of inhibition ([4]; at 1 µM) of -5.3%, a % of inhibition ([4]; at 5 µM) of -19.6% and a % of inhibition [5] of -2.26%.

`COc1cc(Nc2nc(C)cc(-c3cnn4nc(OC)ccc34)n2)cc(C(F)(F)F)c1` gave a % of control [6] of 91%.

With `Cc1cc(F)c(C(=O)Nc2cccc(-c3nncn3C(C)C)n2)cc1-n1cnc(C2CC2)c1` the % of control [7] was 93%.

With `COCC(=O)NC/C=C/c1ccc2ncnc(Nc3ccc(Oc4ccc(C)nc4)c(C)c3)c2c1` [CP-724714] the % of control [8] was 100% and the % of control [9] was 100%.

Molecule `C=CC(=O)Nc1cc(-n2c(=O)ccc3cnc4ccc(-c5ccc(NS(C)(=O)=O)cc5)cc4c32)ccc1C` has a % of control ([10]; at 1 µM) of 100% and a % of control ([10]; at 10 µM) of 59%.

`N#Cc1cccc(-c2c[nH]c3ncnc(N4CCOCC4)c23)c1` showed a % of control [11] of 72%.
